Test results taken from patent US8124793B2, “Derivatives of ethylene methanedisulfonate as cancer chemotherapeutic agents” (priority 2007, dated 2012).

Assays:
Assay type in all cases: cell-based
OVCAR-4 = test: NCI screen, growth of human tumor cells: Ovarian Cancer OVCAR-4; details: OVCAR-4, 10^−4 molar
Summary of the method: (§1)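 Growth of human tumor cells, expressed as percent, was determined in the NCI screen. Test data list the cancer type and the molar concentration applied.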

NCI-H23 = test: NCI screen, growth of human tumor cells: Non-Small Cell Lung NCI-H23
Summary of the method: as §1

MCF 7 = test: NCI screen, growth of human tumor cells: Breast Cancer MCF 7
Summary of the method: as §1

human cancer cells = test: NCI screen summary over the cancers tested (negative growth of human cancer cells); details: for Percentage of cancers showing negative growth cancers tested: cancers with negative growth / cancers tested
Method: In the NCI screening process, each compound was tested and described by a minimum of 60 data points. The test data include, but are not limited to the type of cancer, the molar concentration used in the screen, and the percent growth of the cancer. In some cases, NMR and elemental analysis were used for structural assignment.
The derivatives in the tables are grouped using the same category as in the tables 1-6.

SR = test: NCI screen, growth of human tumor cells: Leukemia SR; details: for % Growth: SR
Summary of the method: as §1

BT-549 = test: NCI screen, growth of human tumor cells: Breast Cancer BT-549
Summary of the method: as §1

AS49/ATCC = test: NCI screen, growth of human tumor cells: Non-Small Cell Lung AS49/ATCC; details: A549/ATCC, 10^−4 molar
Summary of the method: as §1

PC-3 = test: NCI screen, growth of human tumor cells: Prostate Cancer PC-3
Summary of the method: as §1

MALME-3M = test: NCI screen, growth of human tumor cells: Melanoma MALME-3M; details: 10^−4 molar
Summary of the method: as §1

ACHN = test: NCI screen, growth of human tumor cells: Renal Cancer ACHN; details: ACHN, 10^−4 molar
Summary of the method: as §1

HCC-2998 = test: NCI screen, growth of human tumor cells: HCC-2998 (listed under Non-Small Cell Lung)
Summary of the method: as §1

MDA-MB-435 = test: NCI screen, growth of human tumor cells: Breast Cancer MDA-MB-435
Summary of the method: as §1

HT29 = test: NCI screen, growth of human tumor cells: Colon Cancer HT29
Summary of the method: as §1

OVCAR-3 = test: NCI screen, growth of human tumor cells: Ovarian Cancer OVCAR-3; details: OVCAR-3, 10^−4 molar
Summary of the method: as §1

MCF7/ADR-RES = test: NCI screen, growth of human tumor cells: Breast Cancer MCF7/ADR-RES; details: MCF7/ADR-RES (Breast Cancer), 10^−4 molar
Summary of the method: as §1

MOLT-4 = test: NCI screen, growth of human tumor cells: Leukemia MOLT-4
Summary of the method: as §1

CCRF-CEM = test: NCI screen, growth of human tumor cells: Leukemia CCRF-CEM; details: for % Growth: CCRF-CEM
Summary of the method: as §1

HOP-62 = test: NCI screen, growth of human tumor cells: Non-Small Cell Lung HOP-62; details: HOP-62, 10^−4 molar
Summary of the method: as §1

HCT-116 = test: NCI screen, growth of human tumor cells: Colon Cancer HCT-116
Summary of the method: as §1

LOXIMVI = test: NCI screen, growth of human tumor cells: Melanoma LOXIMVI; details: for % Growth: LOXIMVI
Summary of the method: as §1

OVCAR-5 = test: NCI screen, growth of human tumor cells: Ovarian Cancer OVCAR-5; details: OVCAR-5, 10^−4 molar
Summary of the method: as §1

CAKI-1 = test: NCI screen, growth of human tumor cells: Renal Cancer CAKI-1
Summary of the method: as §1

RPMI-8226 = test: NCI screen, growth of human tumor cells: Leukemia RPMI-8226
Summary of the method: as §1

EKVX = test: NCI screen, growth of human tumor cells: Non-Small Cell Lung EKVX; details: EKVX, 10^−4 molar
Summary of the method: as §1

SK-MEL-5 = test: NCI screen, growth of human tumor cells: Melanoma SK-MEL-5
Summary of the method: as §1

KM12 = test: NCI screen, growth of human tumor cells: Colon Cancer KM12; details: KM12, 10^−4 molar
Summary of the method: as §1

U-251 = test: NCI screen, growth of human tumor cells: CNS Cancer U-251
Summary of the method: as §1

SK-MEL-2 = test: NCI screen, growth of human tumor cells: Melanoma SK-MEL-2
Summary of the method: as §1

NCI-H226 = test: NCI screen, growth of human tumor cells: Non-Small Cell Lung NCI-H226
Summary of the method: as §1

HOP-92 = test: NCI screen, growth of human tumor cells: Non-Small Cell Lung HOP-92; details: HOP-92 (Non-Small Cell Lung), 10^−4 molar
Summary of the method: as §1

SF-268 = test: NCI screen, growth of human tumor cells: CNS Cancer SF-268; details: SF-268 (CNS Cancer), 10^−4 molar
Summary of the method: as §1

SNB-75 = test: NCI screen, growth of human tumor cells: CNS Cancer SNB-75; details: SNB-75, 10^−4 molar
Summary of the method: as §1

UACC-62 = test: NCI screen, growth of human tumor cells: Melanoma UACC-62; details: UACC-62, 10^−4 molar
Summary of the method: as §1

SF-539 = test: NCI screen, growth of human tumor cells: CNS Cancer SF-539; details: SF-539 (CNS Cancer), 10^−4 molar
Summary of the method: as §1

UACC-257 = test: NCI screen, growth of human tumor cells: Melanoma UACC-257; details: UACC-257, 10^−4 molar
Summary of the method: as §1

NCI-H460 = test: NCI screen, growth of human tumor cells: Non-Small Cell Lung NCI-H460; details: NCI-H460 (Non-Small Cell Lung), 10^−4 molar
Summary of the method: as §1

Cc1ccc2ccccc2c1CC1S(=O)(=O)OCCOS1(=O)=O [NSC 679043, ethylene 2-methyl-1-naphyl-1,1-ethanedisulfonate]
% Growth (OVCAR-4): −97% | % Growth (NCI-H23; NCI-H23, 10^−4 molar): −48% | % Growth (NCI-H23; NCI-H23, 10^−5 molar): 75% | % Growth (MCF 7; MCF7, 10^−4 molar): −78% | % Growth (MCF 7; MCF7, 10^−5 molar): 45% | percentage of cancers that had −100% growth (human cancer cells; 10^−4 M conc.): 8% | Percentage of cancers showing negative growth cancers tested (human cancer cells; 10^−4 M conc.): 100% | Percentage of cancers showing negative growth cancers tested (human cancer cells; 10^−5 M conc.): 9% | % Growth (SR; 10^−4 molar): −63% | % Growth (SR; 10^−5 molar): 42% | % Growth (BT-549; BT-549, 10^−4 molar): −82% | % Growth (BT-549; BT-549, 10^−5 molar): 57% | % Growth (AS49/ATCC): −77% | % Growth (PC-3; PC-3, 10^−4 molar): −91% | % Growth (PC-3; PC-3, 10^−5 molar): 57% | % Growth (MALME-3M; MALME-3M): −88% | % Growth (ACHN): −90% | % Growth (HCC-2998; HCC-2998, 10^−4 molar): −88% | % Growth (HCC-2998; HCC-2998, 10^−5 molar): 22% | % Growth (MDA-MB-435; MDA-MB-435, 10^−4 molar): −90% | % Growth (MDA-MB-435; MDA-MB-435, 10^−5 molar): 47% | % Growth (HT29; HT-29, 10^−4 molar): −95% | % Growth (HT29; HT-29, 10^−5 molar): 57% | % Growth (OVCAR-3): −100% | percent of growth of human tumor cells (MCF7/ADR-RES): −12% | % Growth (MOLT-4; MOLT-4, 10^−4 molar): −46% | % Growth (MOLT-4; MOLT-4, 10^−5 molar): 36% | % Growth (CCRF-CEM; 10^−4 molar): −49% | % Growth (CCRF-CEM; 10^−5 molar): 37% | % Growth (HOP-62): −77% | % Growth (HCT-116; HCT-116, 10^−4 molar): −99% | % Growth (HCT-116; HCT-116, 10^−5 molar): 15% | % Growth (LOXIMVI; 10^−4 molar): −84% | % Growth (LOXIMVI; 10^−5 molar): 45% | % Growth (OVCAR-5): −98% | % Growth (CAKI-1; CAKI-1, 10^−4 molar): −100% | % Growth (RPMI-8226; RPMI-8226, 10^−4 molar): −54% | % Growth (RPMI-8226; RPMI-8226, 10^−5 molar): 56% | % Growth (EKVX): −98% | % Growth (SK-MEL-5; SK-MEL-5, 10^−4 molar): −91% | % Growth (KM12): −69% | % Growth (U-251; U251, 10^−4 molar): −96% | percent of growth of human tumor cells (SK-MEL-2; SK-MEL-2 (Melanoma), 10^−4 molar): −59% | % Growth (NCI-H226; NCI-H226, 10^−4 molar): −63% | % Growth (NCI-H226; NCI-H226, 10^−5 molar): 49%

CC1(C)OCC(COC(=O)C(=O)C2(Cc3ccc4c(c3)C(=O)c3ccccc3C4=O)S(=O)(=O)OCCOS2(=O)=O)O1 (stereo not shown) [NSC 737276]
percent of growth of human tumor cells (HOP-92): −47% | % Growth (OVCAR-4): −73% | % Growth (NCI-H23; NCI-H23, 10^−4 molar): −75% | percent of growth of human tumor cells (MCF 7; MCF 7 (Breast Cancer), 10^−4 molar): −59% | Percentage of cancers showing negative growth cancers tested (human cancer cells; 10^−4 M conc.): 10^−4 M conc. = 49/55 = 89% | percent of growth of human tumor cells (SR; SR (Leukemia), 10^−4 molar): 12% | percent of growth of human tumor cells (BT-549; BT-549 (Breast Cancer), 10^−4 molar): −49% | % Growth (PC-3; PC-3, 10^−4 molar): −68% | percent of growth of human tumor cells (SF-268): −40% | percent of growth of human tumor cells (MALME-3M; MALME-3M (Melanoma)): −50% | % Growth (ACHN): −82% | % Growth (HCC-2998; HCC-2998, 10^−4 molar): −96% | percent of growth of human tumor cells (HT29; HT29 (Colon Cancer), 10^−4 molar): −25% | % Growth (SNB-75): −87% | % Growth (OVCAR-3): −71% | % Growth (UACC-62): −91% | percent of growth of human tumor cells (MCF7/ADR-RES): −29% | percent of growth of human tumor cells (SF-539): −43% | percent of growth of human tumor cells (MOLT-4; MOLT-4 (Leukemia), 10^−4 molar): −26% | percent of growth of human tumor cells (CCRF-CEM; CCRF-CEM (Leukemia), 10^−4 molar): −38% | % Growth (HOP-62): −84% | % Growth (HCT-116; HCT-116, 10^−4 molar): −86% | percent of growth of human tumor cells (LOXIMVI; LOXIMVI (Melanoma), 10^−4 molar): −48% | % Growth (OVCAR-5): −89% | percent of growth of human tumor cells (CAKI-1; CAKI-1 (Renal Cancer), 10^−4 molar): 15% | % Growth (UACC-257): −76% | percent of growth of human tumor cells (RPMI-8226; RPMI-8226 (Leukemia), 10^−4 molar): −35% | % Growth (EKVX): −81% | percent of growth of human tumor cells (SK-MEL-5; SK-MEL-5 (Melanoma), 10^−4 molar): −4% | percent of growth of human tumor cells (NCI-H460): −59% | % Growth (KM12): −74% | percent of growth of human tumor cells (U-251; U-251 (CNS Cancer), 10^−4 molar): −53% | % Growth (SK-MEL-2; SK-MEL-2, 10^−4 molar): −62% | percent of growth of human tumor cells (NCI-H226; NCI-H226 (Non-Small Cell Lung), 10^−4 molar): 10%
